Like-named read-outs stand apart in the source and are kept apart here.

These results are taken from PMC4457633 (Bioorganic & medicinal chemistry letters, 2015).

The target in data set [1] is T1, VMAT-2 (Rattus norvegicus, UniProt Q01827). The data set is described as follows: [3H]DA uptake at VMAT-2, isolated rat synaptic vesicle preparations. Format: biochemical. To be noted: for fold more potent inhibiting [3H]DA uptake at VMAT-2 compared to 16: compared to N-2,3-dihydroxypropyl derivative 16.
The target of data set [2] is T1, VMAT-2. Conditions: read-out: [3H]DA uptake Ki; mean ± SEM; rat synaptic vesicles; ref [15]; cited from earlier work.
The conditions of data set [3]: qualitative; ref [15]; cited from earlier work.
In data set [4] the target is T1, VMAT-2. To be noted: read-out: [3H]DTBZ Binding Ki; mean ± SEM; rat brain synaptic vesicles; ref [15]; cited from earlier work.

T1 sequence (Q01827 whole entry): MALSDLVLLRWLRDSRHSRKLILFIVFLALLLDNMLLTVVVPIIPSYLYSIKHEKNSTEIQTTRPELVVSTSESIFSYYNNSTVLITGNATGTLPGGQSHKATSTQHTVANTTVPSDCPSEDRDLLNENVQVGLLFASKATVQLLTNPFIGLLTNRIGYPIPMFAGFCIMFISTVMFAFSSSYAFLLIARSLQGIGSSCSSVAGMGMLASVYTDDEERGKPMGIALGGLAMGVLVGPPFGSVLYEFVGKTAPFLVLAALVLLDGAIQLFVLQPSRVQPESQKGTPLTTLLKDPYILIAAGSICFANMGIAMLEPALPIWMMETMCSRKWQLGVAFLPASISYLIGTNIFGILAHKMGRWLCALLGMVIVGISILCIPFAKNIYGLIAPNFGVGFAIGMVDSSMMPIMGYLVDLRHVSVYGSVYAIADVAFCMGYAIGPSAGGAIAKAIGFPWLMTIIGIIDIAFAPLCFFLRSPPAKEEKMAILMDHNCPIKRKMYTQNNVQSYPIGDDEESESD

With `OC[C@H](O)CN1[C@@H](CCc2ccc3ccccc3n2)CCC[C@H]1CCc1ccc2ccccc2n1` [Compound 16], the “fold lower inhibitory potency than GZ-793A in vesicular [3H]DA uptake assay” value at VMAT-2 [1] (compared to GZ-793A (Ki = […] nM)) came to 8 fold. As a reminder, the Ki is the dissociation constant of the complex between target and ligand, obtained from inhibition or displacement. For `c1ccc(CC[C@H]2CCC[C@@H](CCc3ccccc3)N2)cc1` [Norlobelane], the Ki on VMAT-2 [2] is 43 ± 2 nM; on VMAT-2 [4], 2310 ± 190 nM. In data set [3], the water solubility entry is “less than optimal water-solubility”. Take `c1cnc2ccc(CC[C@H]3CCC[C@@H](CCc4ccc5ncccc5c4)N3)cc2c1` [Compound 15]: the “fold more potent inhibiting [3H]DA uptake at VMAT-2 compared to 16” value (“fold more potent inhibiting” below) on VMAT-2 [1] is “about 6 fold”. As for `CN1[C@@H](CCc2ccccc2)CCC[C@H]1CCc1ccccc1` [Lobelane], in data set [3], the water solubility entry is given as “less than optimal water-solubility”. As to `CN1[C@@H](CCc2ccnc3ccccc23)CCC[C@H]1CCc1ccnc2ccccc12` [Quinlobelane], the water solubility result in data set [3] is “improved water solubility over lobelane and norlobelane”. With `c1ccc2nc(CC[C@H]3CCC[C@@H](CCc4ccc5ccccc5n4)N3)ccc2c1` [Compound 13], the “fold more potent inhibiting” value on VMAT-2 [1] is listed as “about 6 fold”. As for `c1ccc2c(CC[C@H]3CCC[C@@H](CCc4ccnc5ccccc45)N3)ccnc2c1` [Compound 14], the “fold more potent inhibiting” value at VMAT-2 [1] is on record as “about 6 fold”.
